Experimental data as given in patent US12303474B2, “S-enantiomerically enriched compositions of beta blockers for treating amyotrophic lateral sclerosis” (priority 2013, dated 2025).
“Also recorded” adds a separate entry of the source. Like-named read-outs stand apart in the source and are kept apart here. Marks after values point to notes of the source that are not given here.

Tests used:
[1] = tested on: G93A SOD1 B6SJL hybrid (G93A) model; test: Disease progression score (JAX SOP) in G93A SOD1 transgenic mice
Excerpt: The disease progression score is based on the JAX SOP (Ludolph A C, Bendotti C, Blaugrund E, Hengerer B, Loffler J P, Martin J, Meininger V, Meyer T, Moussaoui S, Robberecht W, Scott S, Silani V, Van Den Berg L H (ENMC Group For The Establishment Of Guidelines For The Conduct Of Preclinical And Proof Of Concept Studies In ALS/MND Models). 2007, which is incorporated by reference).

[2] = tested on: G93A SOD1 B6SJL hybrid (G93A) model;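 on HR survival (FIG. 14): dosing began after ALS onset in G93A SOD1 mice, with survival as the endpoint, defined humanely as the animal failing to regain upright posture within 30 s when placed sideways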;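 on HR survival (FIG. 16): dosing began after ALS onset in G93A SOD1 mice, with survival as the endpoint, defined humanely as the animal failing to regain upright posture within 30 s when placed sideways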
Excerpt: To study the effect of S-oxprenolol on survival, survival was monitored over time.

[3] = tested on: G93A SOD1 B6SJL hybrid (G93A) model; settings: for Heart / gastrocnemius: end of study;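 on HR survival (FIG. 14): dosing began after ALS onset in G93A SOD1 mice, with survival as the endpoint, defined humanely as the animal failing to regain upright posture within 30 s when placed sideways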;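 on HR survival (FIG. 16): dosing began after ALS onset in G93A SOD1 mice, with survival as the endpoint, defined humanely as the animal failing to regain upright posture within 30 s when placed sideways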
Procedure: (§1) Transgenic mice over-expressing a high copy number (25 copies) of mutated human SOD1 gene with a G93A point mutation, i.e., B6SJL-TgN [SOD1-G93A]1 Gur (G1H-G93A transgenic mice, JR2726; Hemizygote) (Gurney M E, et al., Science, 264, 1772-1775, 1994) (“G93A SOD1 B6SJL hybrid (G93A) model”), were used.
To study the effect of the test compounds on skeletal muscle atrophy, the skeletal muscle mass were determined at the end of the study.
The number of all mice in the population is indicated as “n” in at the bottom of FIGS. 21A-21C.
The number of all mice in the population is indicated as “n” in at the bottom of FIGS. 20D-20F.
The number of all mice in the population is indicated as “n” in at the bottom of FIGS. 21G-21I.

[4] = tested on: G93A SOD1 B6SJL hybrid (G93A) model; test: Body weight and body composition (lean mass, fat mass; NMR scans) in G93A SOD1 transgenic mice; assay type: in vivo; settings: for Average Δ body weight / Average Δ fat mass / Average Δ lean mass: per day alive after disease onset
Excerpt: as §1
[…] […] There were 16 mice in the S-oxprenolol group.
The primary endpoint was survival, humanely defined as the ability of the animal to right itself in 30 seconds after being laid on its side. Secondary endpoints were body weight, body composition, spontaneous activity and food intake. Body weight of the animals was assessed weekly until onset of disease. Additionally, body composition (fat mass and lean body mass) was assessed using NMR scans (EchoMRI-100, Echo Medical Systems, Houston, USA) every 4 days. After onset of disease, body weight and body composition were assessed every two days until the end of the study. All personal handling the animals was strictly blinded to the randomized treatment allocation.
To study the effect of S-oxprenolol on body weight, body weight was monitored over time.
To study the effect of the test compounds on lean body mass, lean mass was determined at the end of the study.
To study the effect of the test compounds on fat mass, the fat mass were determined at the end of the study.
To study the effect of S-oxprenolol on body weight, body weight was monitored over time. […] The number of all mice in the population is indicated as “n” in at the bottom of FIGS. 20A-20C.
To study the effect of the test compounds on lean body mass, lean mass was determined at the end of the study. […] The number of all mice in the population is indicated as “n” in at the bottom of FIGS. 20D-20F.
To study the effect of the test compounds on fat mass, the fat mass were determined at the end of the study. […] The number of all mice in the population is indicated as “n” in at the bottom of FIGS. 20G-20I.

[5] = all mice, 10 mg/kg/day vs. placebo
[6] = female mice, 10 mg/kg/day vs. placebo
[7] = male mice, 10 mg/kg/day vs. placebo
[8] = 20 mg/kg/day vs. S-Oxprenolol (20)
[9] = 10 mg/kg/day, S-pindolol 3 mg/kg/day

## CC(C)NCC(O)COc1cccc2ccccc12 (stereo not drawn) [propanolol]
[1]; 10 mg/kg/day vs. placebo
  HR Progression from score 1 to score 2 (FIG. 17): 0.64
  HR Progression from score 1 to score 3 (FIG. 19): 0.72
  HR Progression from score 2 to score 3 (FIG. 18): 0.99
[2]; [5]
  HR survival (FIG. 14): 0.73
[2]; [6]
  HR survival (FIG. 16): 0.71
[2]; [7]
  HR survival (FIG. 15): 0.59
[3]; all mice, 10 mg/kg/d
  BAT (brown adipose tissue): 45.1 ± 2.9 mg
  EDL (extensor digitorum longus): 7.11 ± 0.37 mg
  soleus: 5.60 ± 0.28 mg
  Heart: 104.0 ± 3.2 mg
  gastrocnemius: 52.4 ± 3.3 mg
[3]; female mice, 10 mg/kg/d
  BAT (brown adipose tissue): 41.2 ± 2.2 mg
  EDL (extensor digitorum longus): 6.21 ± 0.37 mg
  soleus: 5.57 ± 0.43 mg
  Heart: 93.8 ± 2.7 mg
  gastrocnemius: 40.6 ± 3.3 mg
[3]; male mice, 10 mg/kg/d
  BAT (brown adipose tissue): 48.7 ± 5.1 mg
  EDL (extensor digitorum longus): 7.94 ± 0.55 mg
  soleus: 5.63 ± 0.38 mg
  Heart: 113.5 ± 4.6 mg
  gastrocnemius: 63.3 ± 3.6 mg
[4]; all mice, 10 mg/kg/d
  Δ body weight: -5.89 ± 0.42 g
  Δ fat mass: -1.82 ± 0.25 g
  Δ lean mass: -4.89 ± -0.26 g
  Average Δ body weight: -127.6 ± 10.6 mg/day
  Average Δ fat mass: -43.9 ± 5.5 mg/day
[4]; female mice, 10 mg/kg/d
  Δ body weight: -5.66 ± 0.66 g
  Δ fat mass: -1.65 ± 0.44 g
  Δ lean mass: -4.70 ± 0.37 g
  Average Δ body weight: -111.3 ± 13.2 mg/day
  Average Δ fat mass: -30.9 ± 8.3 mg/day
  Average Δ lean mass: -91.2 ± 8.3 mg/day
[4]; male mice, 10 mg/kg/d
  Δ body weight: -6.11 ± 0.54 g
  Δ fat mass: -1.99 ± 0.26 g
  Δ lean mass: -5.06 ± 0.37 g
  Average Δ body weight: -142.7 ± 15.9 mg/day
  Average Δ fat mass: -51.9 ± 6.9 mg/day
  Average Δ lean mass: -118.6 ± 10.6 mg/day

## C=CCOc1ccccc1OC[C@@H](O)CNC(C)C [S-oxprenolol, (S)-1-(2-(allyloxy)phenoxy)-3-(isopropylamino)propan-2-ol]
[1]; 10 mg/kg/day vs. placebo
  HR Progression from score 1 to score 2 (FIG. 17): 0.56
  HR Progression from score 1 to score 3 (FIG. 19): 0.73
  HR Progression from score 2 to score 3 (FIG. 18): 1.07
[1]; [8]
  HR Progression from score 1 to score 2 (FIG. 17): 1.17
  HR Progression from score 1 to score 3 (FIG. 19): 1.48
  HR Progression from score 2 to score 3 (FIG. 18): 1.20
[1]; 20 mg/kg/day vs. placebo
  HR Progression from score 1 to score 2 (FIG. 17): 0.51
  HR Progression from score 1 to score 3 (FIG. 19): 0.47
  HR Progression from score 2 to score 3 (FIG. 18): 0.64
[2]; 10 mg/kg/day
  percent survival, comparison in words (FIGS. 2-4): longer survival than those in the placebo group; also recorded: significantly superior to either placebo or S-pindolol at its preferred dose; also recorded: significantly superior to either placebo or the other compounds
[2]; 10 mg/kg/day, 95% CI: 0.171-0.88, p=0.0241
  HR (hazard ratio) survival vs placebo, FIG. 2: 0.39
[2]; 10 mg/kg/day, 95% CI: 0.83-1.81
  Median survival ratio vs placebo: 1.32
[2]; 10 mg/kg/day, placebo 28 days
  Median survival after onset of ALS symptoms: 37 days
[2]; 10 mg/kg/day, placebo 42 days
  survival, days after onset: 56 days
[2]; G93A mice, 10 mg/kg/day after onset of ALS
  survival improved compared to placebo treated mice: about 33%
[2]; all mice, 20 mg/kg/day
  percent survival, comparison in words (FIG. 14): longer survival than other groups
[2]; [5]
  HR survival (FIG. 14): 0.71
[2]; all mice, 20 mg/kg/day vs. placebo
  HR survival (FIG. 14): 0.45
[2]; female mice, 20 mg/kg/day
  percent survival, comparison in words (FIG. 16): longer survival than other groups
[2]; [6]
  HR survival (FIG. 16): 0.96
[2]; female mice, 20 mg/kg/day vs. placebo
  HR survival (FIG. 16): 0.53
[2]; male mice, 20 mg/kg/day
  percent survival, comparison in words (FIG. 15): longer survival than other groups
[2]; [7]
  HR survival (FIG. 15): 0.46
[2]; male mice, 20 mg/kg/day vs. placebo
  HR survival (FIG. 15): 0.39
[3]; 10 mg/kg/day
  gastrocnemius weight over days after onset, in words (FIG. 9): steady
  tibialis anterior muscle weight over days after onset, in words (FIG. 11): steady
[3]; 10 mg/kg/day, p=0.72, placebo R: −0.67
  correlation R of tibialis anterior muscle weight with days after onset (=survival), FIG. 11: 0.15
[3]; 10 mg/kg/day, p=0.94, placebo R: −0.56
  correlation R of gastrocnemius weight with days after onset (=survival), FIG. 9: −0.03
[3]; all mice, 10 mg/kg/d
  BAT (brown adipose tissue): 46.8 ± 3.5 mg
  EDL (extensor digitorum longus): 7.18 ± 0.34 mg
  soleus: 5.89 ± 0.35 mg
  Heart: 108.6 ± 5.8 mg
  gastrocnemius: 55.1 ± 4.0 mg
[3]; all mice, 20 mg/kg/d
  BAT (brown adipose tissue): 43.7 ± 2.3 mg
  EDL (extensor digitorum longus): 7.791 ± 0.29*^+++ mg
  soleus: 6.42 ± 0.39 mg
  Heart: 104.1 ± 3.5 mg
  gastrocnemius: 50.1 ± 2.9 mg
[3]; female mice, 10 mg/kg/d
  BAT (brown adipose tissue): 39.4 ± 4.2 mg
  EDL (extensor digitorum longus): 7.03 ± 0.51 mg
  soleus: 5.71 ± 0.48 mg
  Heart: 92.3 ± 3.2^p=0.064 mg
  gastrocnemius: 50.5 ± 4.0*^p=0.060 ^vs propanolol mg
[3]; female mice, 20 mg/kg/d
  BAT (brown adipose tissue): 37.1 ± 2.9 mg
  EDL (extensor digitorum longus): 7.29 ± 0.42*^$ mg
  soleus: 6.15 ± 0.30 mg
  Heart: 92.8 ± 3.0 mg
  gastrocnemius: 46.2 ± 3.9 mg
[3]; male mice, 10 mg/kg/d
  BAT (brown adipose tissue): 53.2 ± 5.0 mg
  EDL (extensor digitorum longus): 7.28 ± 0.47 mg
  soleus: 6.04 ± 0.53 mg
  Heart: 122.6 ± 8.8 mg
  gastrocnemius: 59.1 ± 6.6 mg
[3]; male mice, 20 mg/kg/d
  BAT (brown adipose tissue): 46.5 ± 3.0 mg
  EDL (extensor digitorum longus): 8.15 ± 0.39^$$$ mg
  soleus: 6.58 ± 0.61 mg
  Heart: 112.4 ± 4.5 mg
  gastrocnemius: 53.1 ± 4.3 mg
[4]; 10 mg/kg/day, end of study
  change in lean body mass, in words (FIG. 6): less change in lean body mass than those receiving a placebo
[4]; [9]
  change in fat mass per survival day after ALS onset, in words (FIG. 13): less change in fat mass than those receiving S-pindolol
  change in lean body mass per survival day after ALS onset, in words (FIG. 7): less change in lean body mass than those receiving S-pindolol
  change of body weight per survival day after ALS onset, in words (FIG. 5): body weight loss that was close to those administered S-pindolol; also recorded: less body weight loss than those in the placebo group
[4]; 10 mg/kg/day, p=0.18
  Wasting of lean mass reduced compared to placebo (FIG. 6): about 40%
[4]; all mice, 10 mg/kg/d
  Δ body weight: -5.4 ± 0.43 g
  Δ fat mass: -1.26 ± 0.14 g
  Δ lean mass: -3.31 ± 0.33 g
  Average Δ body weight: -123 ± 11.6 mg/day
  Average Δ fat mass: -29.4 ± 3.7 mg/day
  Average Δ lean mass: -89.6 ± 9.1 mg/day
[4]; all mice, 20 mg/kg/d
  Δ body weight: -5.56 ± 0.47 g
  Δ fat mass: -1.56 ± 0.18 g
  Δ lean mass: -4.78 ± 0.41 g
  Average Δ body weight: −99.4 ± 9.7^p=0.064 mg/day
  Average Δ fat mass: -29.8 ± 3.6 mg/day
  Average Δ lean mass: -93.3 ± 7.5 mg/day
[4]; end of study, p>0.5
  change in fat mass, in words (FIG. 12): no effect on the loss of fat mass
[4]; female mice, 10 mg/kg/d
  Δ body weight: -4.51 ± 0.55 g
  Δ fat mass: −1.17 ± 0.21^p=0.059 g
  Δ lean mass: -3.99 ± 0.37 g
  Average Δ body weight: -103.3 ± 16.1 mg/day
  Average Δ fat mass: -25.9 ± 4.8 mg/day
  Average Δ lean mass: -69.2 ± 10.8 mg/day
[4]; female mice, 20 mg/kg/d
  Δ body weight: -4.57 ± 0.55 g
  Δ fat mass: -1.29 ± 0.17 g
  Δ lean mass: -3.97 ± 0.49 g
  Average Δ body weight: -82.0 ± 13.6 mg/day
  Average Δ fat mass: −26.8 ± 4.4^+ mg/day
  Average Δ lean mass: 90.7 ± 10.9 mg/day
[4]; male mice, 10 mg/kg/d
  Δ body weight: -6.57 ± 0.57 g
  Δ fat mass: -1.44 ± 0.19 g
  Δ lean mass: -3.67 ± 0.49 g
  Average Δ body weight: -150.3 ± 14.5 mg/day
  Average Δ fat mass: -33.6 ± 5.7 mg/day
  Average Δ lean mass: -115.1 ± 13.9 mg/day
[4]; male mice, 20 mg/kg/d
  Δ body weight: -6.36 ± 0.67 g
  Δ fat mass: -1.78 ± 0.28 g
  Δ lean mass: -5.34 ± 0.56 g
  Average Δ body weight: -115.7 ± 12.6 mg/day
  Average Δ fat mass: -32.1 ± 5.4 mg/day
  Average Δ lean mass: -95.8 ± 10.6 mg/day
